What all share (assay): Isothermal titration calorimetry
Holding throughout (type): binding
Settings in all cases: SD, n = 3

The target in one test is T1, AngaD7L2 (Anopheles gambiae, UniProt A0A1S4GYJ6).
T1 sequence (A0A1S4GYJ6 19-315): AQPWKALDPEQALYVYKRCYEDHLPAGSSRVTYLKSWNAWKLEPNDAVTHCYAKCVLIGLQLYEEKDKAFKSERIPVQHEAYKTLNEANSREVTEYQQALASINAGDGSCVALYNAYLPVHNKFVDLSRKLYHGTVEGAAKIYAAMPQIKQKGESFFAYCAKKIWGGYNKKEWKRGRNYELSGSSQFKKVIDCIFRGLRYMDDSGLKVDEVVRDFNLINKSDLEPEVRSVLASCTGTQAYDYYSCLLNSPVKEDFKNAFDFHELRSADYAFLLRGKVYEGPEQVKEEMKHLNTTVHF

A further test concerns the target T2, AngaD7L1 (Anopheles gambiae, UniProt Q7PJ76).
T2 sequence (Q7PJ76 22-311): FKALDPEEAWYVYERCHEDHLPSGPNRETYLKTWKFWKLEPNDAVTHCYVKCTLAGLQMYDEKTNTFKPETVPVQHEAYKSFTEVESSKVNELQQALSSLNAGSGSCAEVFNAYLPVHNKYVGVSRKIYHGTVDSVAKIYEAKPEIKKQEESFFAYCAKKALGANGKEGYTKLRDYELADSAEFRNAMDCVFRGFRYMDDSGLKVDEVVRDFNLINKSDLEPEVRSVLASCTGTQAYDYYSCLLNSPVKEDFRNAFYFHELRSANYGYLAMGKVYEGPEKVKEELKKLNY

The target of a further test is AngaD7L3 (Anopheles gambiae, UniProt A0A1S4HE90).
Chain of AngaD7L3 (A0A1S4HE90 27-354): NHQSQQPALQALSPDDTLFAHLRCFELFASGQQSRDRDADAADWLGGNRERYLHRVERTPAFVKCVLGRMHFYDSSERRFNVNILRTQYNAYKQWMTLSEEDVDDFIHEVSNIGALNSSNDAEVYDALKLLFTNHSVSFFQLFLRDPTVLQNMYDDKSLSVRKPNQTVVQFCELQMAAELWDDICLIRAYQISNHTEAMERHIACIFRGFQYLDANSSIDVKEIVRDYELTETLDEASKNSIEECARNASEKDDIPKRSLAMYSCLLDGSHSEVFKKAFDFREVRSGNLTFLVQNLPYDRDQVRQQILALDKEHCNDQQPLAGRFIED

At AngaD7L2, `CCCCC/C=C\C[C@@H](O)/C=C/C=C/C=C\[C@@H](O)CCCC(=O)O` [LTB4, leukotriene B4] had a Kd of 0.8 µM. For `CCCCC/C=C\C\C=C/C=C/C=C/[C@@H](SC[C@H](NC(=O)CC[C@H](N)C(=O)O)C(=O)NCC(=O)O)[C@@H](O)CCCC(=O)O` [LTC4, leukotriene C4], the Kd on AngaD7L1 amounted to 2 µM. In other words, the single-digit micromolar range. `CCCCC/C=C\C\C=C/C=C/C=C/[C@@H](SC[C@H](N)C(=O)NCC(=O)O)[C@@H](O)CCCC(=O)O` [LTD4, leukotriene D4] returned a Kd at AngaD7L2 of 1 µM. The compound `NCCc1c[nH]c2ccc(O)cc12` [Serotonin, 5-hydroxytryptamine (5-HT)] had a dissociation constant Kd at AngaD7L3 of 0.02 µM.

Regarding `CCCCC[C@H](O)/C=C/[C@@H]1[C@@H](C/C=C\CCCC(=O)O)[C@H]2CO[C@@H]1C2` [U-46619, 9,11-dideoxy-9alpha,11alpha-methanoepoxyprostaglandin F2alpha (thromboxane A2 analog)], the Kd at AngaD7L1 worked out at 0.4 µM.
